Assay results reported in the supplement of paper PMC11061612.

What was measured:
Capivasertib = compound: C1CN(CCC1(C(=O)N[C@@H](CCO)C2=CC=C(C=C2)Cl)N)C3=NC=NC4=C3C=CN4 [Capivasertib]; conditions: max 10 µM
Procedure, shortened: (§1)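 Cancer cell lines in 1536-well plates (7.5 μl DMEM/F12 or RPMI, 10% FBS) were held 24 hours at 37°C and 5% CO2 and then dosed for 72 hours at a final DMSO of typically 0.2%. Viability was taken from CellTiter-Glo 2.0 luminescence, scaled between blank-well and DMSO-well means. Curves were fitted as two-parameter logistic models with a non-linear mixed effects model, from which the single-agent IC50 was taken.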

AZD1775 = compound: C=CCn1c(=O)c2cnc(Nc3ccc(N4CCN(C)CC4)cc3)nc2n1-c1cccc(C(C)(C)O)n1 [AZD1775]; conditions: max 3 µM
Procedure, shortened: as §1

Trametinib = compound: CC(=O)Nc1cccc(-n2c(=O)n(C3CC3)c(=O)c3c(Nc4ccc(I)cc4F)n(C)c(=O)c(C)c32)c1 [Trametinib]; conditions: max 1 µM
Procedure, shortened: as §1

Palbociclib = compound: CC(=O)c1c(C)c2cnc(Nc3ccc(N4CCNCC4)cn3)nc2n(C2CCCC2)c1=O [Palbociclib]; conditions: max 10 µM
Procedure, shortened: as §1

AZD1390 = compound: CC(C)n1c(=O)n(C)c2cnc3cc(F)c(-c4ccc(OCCCN5CCCCC5)nc4)cc3c21 [AZD1390]; conditions: max 0.3 µM
Procedure, shortened: as §1

Venetoclax = compound: CC1(C)CCC(CN2CCN(c3ccc(C(=O)NS(=O)(=O)c4ccc(NCC5CCOCC5)c([N+](=O)[O-])c4)c(Oc4cnc5[nH]ccc5c4)c3)CC2)=C(c2ccc(Cl)cc2)C1 [Venetoclax]; conditions: max 1 µM
Procedure, shortened: as §1

Dasatinib = compound: CC1=C(C(=CC=C1)Cl)NC(=O)C2=CN=C(S2)NC3=CC(=NC(=N3)C)N4CCN(CC4)CCO [Dasatinib]; conditions: max 2 µM
Procedure, shortened: as §1

SG3199 = compound: CC1=CN2[C@@H](C1)C=NC3=CC(=C(C=C3C2=O)OC)OCCCCCOC4=C(C=C5C(=C4)N=C[C@@H]6CC(=CN6C5=O)C)OC [SG3199]; conditions: max 0.001 µM
Procedure, shortened: as §1

AZD2811 = compound: CCN(CCO)CCCOc1ccc2c(Nc3cc(CC(=O)Nc4cccc(F)c4)[nH]n3)ncnc2c1 [AZD2811]; conditions: max 1 µM
Procedure, shortened: as §1

SN-38 = compound: CCc1c2c(nc3ccc(O)cc13)-c1cc3c(c(=O)n1C2)COC(=O)[C@]3(O)CC [SN-38]; conditions: max 0.3 µM
Procedure, shortened: as §1

AZD0156 = compound: CN(C)CCCOc1ccc(-c2ccc3ncc4c(c3c2)n(C2CCOCC2)c(=O)n4C)cn1 [AZD0156]; conditions: max 3 µM
Procedure, shortened: as §1

AZD4320 = compound: CN(CC[C@H](CSC1=CC=CC=C1)NC2=C(C=C(C=C2)S(=O)(=O)NC(=O)C3=CC=C(C=C3)N4CCC(CC4)[C@H](C5=CC=CC=C5C6=CC=C(C=C6)Cl)O)S(=O)(=O)C(F)(F)F)CCO [AZD4320]; conditions: max 1 µM
Procedure, shortened: as §1

Alisertib = compound: COc1cc(Nc2ncc3c(n2)-c2ccc(Cl)cc2C(c2c(F)cccc2OC)=NC3)ccc1C(=O)O [Alisertib]; conditions: max 10 µM
Procedure, shortened: as §1

Gefitinib = compound: COc1cc2ncnc(Nc3ccc(F)c(Cl)c3)c2cc1OCCCN1CCOCC1 [Gefitinib]; conditions: max 10 µM
Procedure, shortened: as §1

Prexasertib = compound: COc1cccc(OCCCN)c1-c1cc(Nc2cnc(C#N)cn2)n[nH]1 [Prexasertib]; conditions: max 1 µM
Procedure, shortened: as §1

Doxorubicin = compound: COc1cccc2c1C(=O)c1c(O)c3c(c(O)c1C2=O)C[C@@](O)(C(=O)CO)C[C@@H]3O[C@H]1C[C@H](N)[C@H](O)[C@H](C)O1 [Doxorubicin]; conditions: max 1 µM
Procedure, shortened: as §1

AZD5153 = compound: COc1nnc2ccc(N3CCC(c4ccc(OCCN5CCN(C)C(=O)[C@H]5C)cc4)CC3)nn12 [AZD5153]; conditions: max 1 µM
Procedure, shortened: as §1

Lapatinib = compound: CS(=O)(=O)CCNCc1ccc(-c2ccc3ncnc(Nc4ccc(OCc5cccc(F)c5)c(Cl)c4)c3c2)o1 [Lapatinib]; conditions: max 10 µM
Procedure, shortened: as §1

AZD8186 = compound: C[C@@H](Nc1cc(F)cc(F)c1)c1cc(C(=O)N(C)C)cc2c(=O)cc(N3CCOCC3)oc12 [AZD8186]; conditions: max 3 µM
Procedure, shortened: as §1

Crizotinib = compound: C[C@@H](Oc1cc(-c2cnn(C3CCNCC3)c2)cnc1N)c1c(Cl)ccc(F)c1Cl [Crizotinib]; conditions: max 10 µM
Procedure, shortened: as §1

Savolitinib = compound: C[C@@H](c1ccc2nccn2c1)n1nnc2ncc(-c3cnn(C)c3)nc21 [Savolitinib]; conditions: max 1 µM
Procedure, shortened: as §1

AZD6738 = compound: C[C@@H]1COCCN1C2=NC(=NC(=C2)C3(CC3)[S@](=N)(=O)C)C4=C5C=CNC5=NC=C4 [AZD6738]; conditions: max 10 µM
Procedure, shortened: as §1

AZD5991 = compound: Cc1c2c(nn1C)CSCc1cc(n(C)n1)CSc1cc(c3ccccc3c1)OCCCc1c(C(=O)O)n(C)c3c-2c(Cl)ccc13 [AZD5991]; conditions: max 1 µM
Procedure, shortened: as §1

AZD7648 = compound: Cc1cc2ncnn2cc1Nc1ncc2c(n1)n(C1CCOCC1)c(=O)n2C [AZD7648]; conditions: max 10 µM
Procedure, shortened: as §1

Taselisib = compound: Cc1nc(-c2cn3c(n2)-c2ccc(-c4cnn(C(C)(C)C(N)=O)c4)cc2OCC3)n(C(C)C)n1 [Taselisib]; conditions: max 10 µM
Procedure, shortened: as §1

Selumetinib = compound: Cn1cnc2c(F)c(Nc3ccc(Br)cc3Cl)c(C(=O)NOCCO)cc21 [Selumetinib]; conditions: max 10 µM
Procedure, shortened: as §1

Olaparib = compound: O=C(c1cc(Cc2n[nH]c(=O)c3ccccc23)ccc1F)N1CCN(C(=O)C2CC2)CC1 [Olaparib]; conditions: max 10 µM
Procedure, shortened: as §1

Cell Line	IC50, cell viability 72 h (Capivasertib) [nM]	IC50, cell viability 72 h (AZD1775) [nM]	IC50, cell viability 72 h (Trametinib) [nM]	IC50, cell viability 72 h (Palbociclib) [nM]	IC50, cell viability 72 h (AZD1390) [nM]	IC50, cell viability 72 h (Venetoclax) [nM]	IC50, cell viability 72 h (Dasatinib) [nM]	IC50, cell viability 72 h (SG3199) [nM]	IC50, cell viability 72 h (AZD2811) [nM]	IC50, cell viability 72 h (SN-38) [nM]	IC50, cell viability 72 h (AZD0156) [nM]	IC50, cell viability 72 h (AZD4320) [nM]	IC50, cell viability 72 h (Alisertib) [nM]	IC50, cell viability 72 h (Gefitinib) [nM]	IC50, cell viability 72 h (Prexasertib) [nM]	IC50, cell viability 72 h (Doxorubicin) [nM]	IC50, cell viability 72 h (AZD5153) [nM]	IC50, cell viability 72 h (Lapatinib) [nM]	IC50, cell viability 72 h (AZD8186) [nM]	IC50, cell viability 72 h (Crizotinib) [nM]	IC50, cell viability 72 h (Savolitinib) [nM]	IC50, cell viability 72 h (AZD6738) [nM]	IC50, cell viability 72 h (AZD5991) [nM]	IC50, cell viability 72 h (AZD7648) [nM]	IC50, cell viability 72 h (Taselisib) [nM]	IC50, cell viability 72 h (Selumetinib) [nM]	IC50, cell viability 72 h (Olaparib) [nM]
OS-RC-2 (Kidney Carcinoma)	> 10000	> 3000	> 1000	> 10000	> 300	> 1000	> 2000	> 1	> 1000	> 300	> 3000	> 1000	> 10000	> 10000	433	> 1000	> 1000	> 10000	1910	> 10000	> 1000	> 10000	> 1000	> 10000	> 10000	> 10000	> 10000
PA-1 (Ovarian Carcinoma)	941	543	869	1620	> 300	> 1000	30.2	> 1	> 1000	19.6	> 3000	> 1000	238	> 10000	187	209	41.1	5150	1060	3090	> 1000	3170	80.7	> 10000	248	> 10000	> 10000
SISO (Cervical Carcinoma)	> 10000	1530	> 1000	> 10000	> 300	> 1000	> 2000	> 1	> 1000	23.6	> 3000	> 1000	6210	> 10000	237	290	> 1000	> 10000	> 3000	> 10000	> 1000	> 10000	> 1000	> 10000	> 10000	> 10000	> 10000
SK-MES-1 (Squamous Cell Lung Carcinoma)	> 10000	1360	178	> 10000	> 300	> 1000	> 2000	> 1	> 1000	30.5	> 3000	> 1000	> 10000	> 10000	60.5	> 1000	> 1000	6630	> 3000	> 10000	> 1000	8000	> 1000	> 10000	4880	> 10000	> 10000
SK-MG-1 (Low Grade Glioma)	> 10000	> 3000	> 1000	> 10000	> 300	> 1000	886	> 1	> 1000	60	> 3000	> 1000	> 10000	> 10000	82.8	> 1000	> 1000	> 10000	2730	> 10000	> 1000	> 10000	> 1000	> 10000	1620	> 10000	> 10000
TT2609-C02 (Thyroid Gland Carcinoma)	> 10000	> 3000	280	> 10000	> 300	> 1000	> 2000	> 1	> 1000	69	> 3000	> 1000	> 10000	> 10000	> 1000	> 1000	> 1000	> 10000	> 3000	> 10000	> 1000	> 10000	> 1000	> 10000	> 10000	6350	> 10000
